Data published in patent US20100275328A1, “METHOD OF SELECTIVELY PRODUCING MALE OR FEMALE STERILE PLANTS” (Syngenta Limited, priority 2003, published 2010).

Experiments:
[1] = tested on: Nicotiana tabacum var. Samsun; assay: Conditional female sterility of transgenic tobacco expressing mutant D-amino acid oxidase in female floral tissue; format: in vivo; details: for seed production after treatment / pollen production after treatment: transgenic tobacco; for seed production after treatment: female floral promoter-DAMOX, foliar spray, root drench or bud application; for pollen production after treatment: same treatment conditions
Method: Tobacco leaf discs are transformed with the recombinant binary vectors using methods similar to those described in Horsch et al (1985) Science, 227, 1229-1231. Many variations of the method may be used. The binary vector can be transformed into, for example, Agrobacterium tumefaciens strain LBA 4404 using the freeze thaw method of transformation. Tobacco transformation and whole plant regeneration is performed using Nicotiana tabacum var. Samsun according to protocols described by Draper et al (Plant Genetic Transformation, Blackwell Sci. Pub. 1989). Transformation events are selected on MS-media containing kanamycin or other suitable antibiotic. The presence of integrated transgenes is confirmed by PCR. Plants are regenerated and allowed to reach maturity and selfed on to produce seed. Northern and/or Western analysis is used to confirm tissue-specific expression of the D-amino acid oxidase genes. The selected plants are self-fertile but have the condition of conditional female sterility. Seeds of the T1 generation are planted out. Once plantlets have grown to a sufficient size they are tested by PCR for the presence of transgene. PCR positive plants are transferred to the greenhouse. These plants are fully fertile in the absence of exogenously applied proherbicide. A subset of these (putatively) conditionally sterile plants are treated with D-phosphinothricin or D-aspartate or D-glutamate in various amounts and at varying growth stages. Such treatments are carried out on the T1 plants confirmed as PCR positive for the D-amino acid oxidase gene, or, equally, such treatments are carried out directly on plants of the To generation (which are vegetatively cloned so that untreated clones of each event may be set aside for seed production). […] For example these amino acids are pure D enantiomers or, alternatively, are DL racemates. For example, they are applied as a foliar spray, prior to or during the early stages of flower formation, at rates usually between 0.25 and 20 kg/ha. Amino acids which may crystallise out of solution on the leaves following foliar application may be redissolved and remobilised for leaf uptake by further applications of water as a spray mist. Amino acids are, for example, also applied as a root drench and optionally, further applied as ˜50 ul of a 10-200 mM solution flooded directly into the buds of emerging florets. Pollen from the treated plants is collected and viability is tested. […] Controls include both transgenic and non-transgenic plants and are grown under identical conditions and under an identical regime of physical treatments except that treatment solutions are either water or an equivalent concentration of pure L-amino acid.
In one variant of the method, the amino acid applied is racemic DL phosphinothricin. In this case, the DNA construct used for transformation comprises, in addition to the DNA sequence encoding a D-amino acid oxidase under operable expression control of a tissue specific female floral promoter region such as ‘stig 1’, also a DNA sequence (EMBL: A02774) a […] under operable control of a promoter region such as the region 5′ of the translational start of the plastocyanin gene of the Pisum sativum plastocyanin gene (EMBL accession number X16082). For example, the construct is the same as depicted in FIG. 1.
The plastocyanin promoter region provides for preferential expression in the green tissues of the plant. […] Furthermore, in the absence of the heterologous D-amino acid oxidase being co-expressed in the floral tissues, the plastocyanin/PAT gene combination provides essentially complete reproductive tolerance with no significant loss of yield despite the PAT expression level being low or non-existent in many of the critical floral tissues when expressed under control of this promoter region. […]

[2] = tested on: D-amino acid oxidase; assay: Control experiments: oxidation of pure L and pure D form of phosphinothricin by D-amino acid oxidase; format: biochemical, Rhodotorula gracilis; details: oxygen electrode
Method: Approximately 7 g wet weight of cells is washed in water. The cells are resuspended in an equal volume of 50 mM/Mops/KOH buffer at pH 7.0 containing 2 mM EDTA, 2 mM DTT and 0.01 mM FAD. Cells are evenly suspended using a glass homogeniser and then disrupted using a one shot head in the Constant Systems (BudBrooke Rd, Warwick U.K.) Basic Z cell disrupter at 13500 psi. The crude extract is kept cold (−4° C.) centrifuged at 30,000 gav for 1 h and the pellet discarded. Some of the extract protein is run out on an SDS PAGE gel stained with Coomassie Blue and, through side by side comparison with similarly prepared extracts of cells containing only ‘empty’ pET vector it is estimated that 2-50% of the total soluble protein in the extract is D-amino acid oxidase. Some of the extract protein is exchanged into 50 mM Mops/KOH buffer at pH 7.0 containing 0.01 mM FAD. This is diluted with the same buffer in a standard oxygen electrode cell (calibrated at 25° C. between zero and a saturated concentration of oxygen). Optionally, the D-amino acid oxidase is further purified using ion-exchange, phenyl sepharose, fractional ammonium sulphate precipitation and gel filtration. […] Final amounts of protein in the cell vary up to 5 mg depending on the level of activity being measured. Rates of oxygen consumption (after substraction of any drift in the bases line) are measured.

[3] = tested on: wheat; assay: Reproductive tolerance of wheat containing PAT gene under barley plastocyanin promoter; format: in vivo; details: wheat with PAT under barley plastocyanin promoter; rates of at least 2 kg/ha
From the text: The current invention provides a method of overcoming the problem of enabling the use of a cheap commercial herbicide, DL phosphinothricin, as both weed control and hybridising agent in the production of hybrid cereals and which method, furthermore, provides resultant hybrid cereals or rice in which DL phosphinothricin (or L-phosphinothricin) can be safely used for weed control without substantial loss of yield. As a yet further benefit, selfed seed from the F1 generation which may later arise as volunteers in subsequent crops will be easier to manage since they, themselves, will generally be sterile if sprayed with controlling amounts of DL phosphinothricin. The same holds for the progeny of pollen outcrossing from the F1 plants to weeds (e.g red rice) or other cereals. The current invention provides genes and enzymes that convert a non-phytotoxic component, D-phosphinothricin, of a commercial herbicide formulation DL phosphinothricin, into the active L form. The PAT gene which converts L-phosphinothricin to N-acetyl L-phosphinothricin is known already and is used commercially to provide tolerance to DL phosphinothricin in crops. […]

[4] = tested on: Tobacco plants; assay: Conditional male sterility of transgenic tobacco expressing mutant D-amino acid oxidase in male floral tissue; format: in vivo; details: rates between 250 g/ha and 5 kg/ha; TAP1 or TA29-DAMOX plus plastocyanin-PAT tobacco
Method: Tobacco plant material is transformed, via Agrobacterium, with vector and transgenic plants are regenerated in a similar manner to that described in the previous example. The plants produced are self-fertile but are conditionally male sterile. Seeds of the T1 generation are planted out into soil. Once plantlets have grown to a sufficient size they are tested by PCR for the presence of transgene. PCR positive plants are transferred to the greenhouse. These plants are fully fertile in the absence of exogenously applied proherbicide. A subset of these putatively conditionally sterile T1 plants, or, alternatively plantlets of T0 ‘events’ (direct regenerants from transformation) are treated with D-phosphinothricin or D-aspartate or D-glutamate in various amounts and at varying growth stages. Where To plants are treated they are vegetatively cloned so that untreated siblings of the events are set aside for seed production. […] For example these amino acids are pure D enantiomers or, alternatively, are DL racemates. For example, they are applied as a foliar spray, prior to or during the early stages of flower formation, at rates usually between 0.25 and 20 kg/ha. Amino acids which may crystallise out of solution on the leaves following foliar application may be redissolved and remobilised for leaf uptake by further applications of water as a spray mist. […]

[5] = rates between 250 g/ha and 5 kg/ha, stig1-DAMOX plus plastocyanin-PAT tobacco

Structure (SMILES)	seed production after treatment [1]	pollen production after treatment [1]	oxidation of pure enantiomer of phosphinothricin [2]	other results
N[C@H](CC(=O)O)C(=O)O [D-aspartate]	relatively little or no seed	near normal levels of viable pollen		
N[C@H](CCC(=O)O)C(=O)O [D-glutamate]	relatively little or no seed	near normal levels of viable pollen		
CP(=O)(O)CC[C@@H](N)C(=O)O [D-phosphinothricin]	relatively little or no seed	near normal levels of viable pollen	up to twice the rate that the DL racemate is	
CP(=O)(O)CCC(N)C(=O)O (stereo not drawn) [DL phosphinothricin]				reproductive tolerance to application [3]: substantially reproductively tolerant; male fertility of treated plants [4]: rendered conditionally male sterile; visible damage of treated plants [4]: not visibly damaged; reproductive tolerance to the herbicide ([1]; plastocyanin promoter/PAT gene, rates in excess of 2 kg/ha): substantially complete reproductive tolerance; female fertility of treated plants [1, 5]: rendered conditionally female sterile; visible damage of treated plants [1, 5]: not visibly damaged
CP(=O)(O)CC[C@H](N)C(=O)O [pure L-form, L-phosphinothricin]			not oxidised at detectable levels	
